Like-named read-outs stand apart in the source and are kept apart here.
Assays:
human glucagon receptor = biological target: T1, human glucagon receptor (Homo sapiens, UniProt P47871); test: cAMP response of HEK-293 cells stably expressing human glucagon receptor (HTRF); type: cell-based; details: Table 6; cAMP formation; read-out: EC50 hGlucagon-R
T1 construct: expressed in transfected cells; host or cells: HEK-293
Method: (§1) cAMP content of cells was determined using a kit from Cisbio Corp. (cat. no. 62AM4PEC) based on HTRF (Homogenous Time Resolved Fluorescence). For preparation, cells were split into T175 culture flasks and grown overnight to near confluency in medium (DMEM/10% FBS). Medium was then removed and cells washed with PBS lacking calcium and magnesium, followed by proteinase treatment with accutase (Sigma-Aldrich cat. no. A6964). Detached cells were washed and resuspended in assay buffer (1×HBSS; 20 mM HEPES, 0.1% BSA, 2 mM IBMX) and cellular density determined. They were then diluted to 400000 cells/ml and 25 μl-aliquots dispensed into the wells of 96-well plates. For measurement, 25 μl of test compound in assay buffer was added to the wells, followed by incubation for 30 minutes at room temperature.
(§2) Potencies of peptidic compounds at the GLP-1, glucagon and GIP receptors were determined by exposing cells expressing human glucagon receptor (hGCG R), human GIP (hGIP R) and human GLP-1 receptor (hGLP-1 R) to the listed compounds at increasing concentrations and measuring the formed cAMP as described in Methods.

human GLP-1 receptor = biological target: T2, human GLP-1 receptor (Homo sapiens, UniProt P43220); test: cAMP response of HEK-293 cells stably expressing human GLP-1 receptor (HTRF); type: cell-based; details: Table 6; cAMP formation; read-out: EC50 hGLP-1R
T2 construct: expressed in transfected cells; host or cells: HEK-293
T2 sequence (P43220 24-463): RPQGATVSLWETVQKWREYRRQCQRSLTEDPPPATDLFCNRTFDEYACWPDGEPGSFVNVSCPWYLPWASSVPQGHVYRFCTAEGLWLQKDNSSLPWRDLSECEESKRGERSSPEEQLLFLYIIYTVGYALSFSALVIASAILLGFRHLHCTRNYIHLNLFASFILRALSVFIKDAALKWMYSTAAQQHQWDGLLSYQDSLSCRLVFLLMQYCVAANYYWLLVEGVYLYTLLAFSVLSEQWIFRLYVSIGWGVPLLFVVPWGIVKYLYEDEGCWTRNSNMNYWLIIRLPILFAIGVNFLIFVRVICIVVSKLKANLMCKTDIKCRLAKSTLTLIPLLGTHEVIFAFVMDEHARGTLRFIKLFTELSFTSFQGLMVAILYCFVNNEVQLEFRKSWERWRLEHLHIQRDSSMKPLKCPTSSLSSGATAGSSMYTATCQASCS
Method: as §1, §2

human GIP receptor = biological target: T3, human GIP receptor (Homo sapiens, UniProt P48546); test: cAMP response of HEK-293 cells stably expressing human GIP receptor (HTRF); type: cell-based; details: Table 6; cAMP formation; read-out: EC50 hGIP-R
T3 construct: expressed in transfected cells; host or cells: HEK-293
T3 sequence (P48546 22-466): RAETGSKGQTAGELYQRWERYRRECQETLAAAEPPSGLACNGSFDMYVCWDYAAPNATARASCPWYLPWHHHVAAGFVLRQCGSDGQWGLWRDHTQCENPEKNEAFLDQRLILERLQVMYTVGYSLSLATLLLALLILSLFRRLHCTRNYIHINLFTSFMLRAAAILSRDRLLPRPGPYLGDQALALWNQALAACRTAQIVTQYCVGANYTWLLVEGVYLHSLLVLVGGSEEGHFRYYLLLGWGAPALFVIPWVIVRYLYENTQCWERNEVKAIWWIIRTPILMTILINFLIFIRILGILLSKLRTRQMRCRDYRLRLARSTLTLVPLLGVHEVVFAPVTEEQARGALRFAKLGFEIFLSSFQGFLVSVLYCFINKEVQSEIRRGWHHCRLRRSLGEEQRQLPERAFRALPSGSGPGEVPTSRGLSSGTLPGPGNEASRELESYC
Method: as §1, §2

[1] = Solubility testing of exendin-4 derivatives (HPLC-UV of supernatant); type: physicochemical
Method: Prior to the testing of solubility and stability of a peptide batch, its purity (HPLC-UV) was determined. […] Therefore, solutions from solid samples were prepared in different buffer systems with a concentration of 10 mg/mL compound based on the previously determined % purity. HPLC-UV was performed after 2 h of gentle agitation from the supernatant, which was obtained by 20 min of centrifugation at 4500 rpm. […] This analysis also served as starting point (t0) for the stability testing.

[2] = Stability testing in solution, 7 days at 40° C. (% remaining peptide, HPLC-UV); type: physicochemical
Method: After that time course, the sample was centrifuged for 20 min at 4500 rpm and 0.2 μL of the supernatant were analysed with HPLC-UV.
For determination of the amount of the remaining peptide, the peak areas of the target compound at t0 and t7 were compared, resulting in “% remaining peptide”, following the equation % remaining peptide=[(peak area peptide t7)×100]/peak area peptide t0.
The stability is expressed as “% remaining peptide”.

T1 sequence (P47871 26-477): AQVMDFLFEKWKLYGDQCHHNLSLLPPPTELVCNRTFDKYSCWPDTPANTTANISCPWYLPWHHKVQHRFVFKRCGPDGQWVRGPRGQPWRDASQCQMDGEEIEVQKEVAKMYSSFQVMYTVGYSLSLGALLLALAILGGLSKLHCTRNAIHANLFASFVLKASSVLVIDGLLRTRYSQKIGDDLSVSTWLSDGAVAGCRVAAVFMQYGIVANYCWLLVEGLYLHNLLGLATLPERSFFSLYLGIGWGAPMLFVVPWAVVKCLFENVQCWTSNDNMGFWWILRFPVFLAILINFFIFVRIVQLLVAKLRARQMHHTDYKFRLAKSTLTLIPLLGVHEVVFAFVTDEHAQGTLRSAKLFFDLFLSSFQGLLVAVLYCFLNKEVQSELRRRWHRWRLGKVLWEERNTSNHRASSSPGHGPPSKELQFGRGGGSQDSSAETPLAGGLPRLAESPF

| SMILES | EC50 (human glucagon receptor) | EC50 (human GLP-1 receptor) | EC50 (human GIP receptor) | further results |
| --- | --- | --- | --- | --- |
| CCCCCCCCCCCCCCCCCC(=O)N[C@@H](CCC(=O)NCCCC[C@H](NC(=O)[C@H](CCC(N)=O)NC(=O)[C@H](CCCCN)NC(=O)[C@H](CO)NC(=O)[C@H](CC(C)C)NC(=O)[C@H](CC(=O)O)NC(=O)[C@H](CO)NC(=O)[C@@H](NC(=O)[C@H](Cc1ccccc1)NC(=O)[C@@H](NC(=O)CNC(=O)[C@H](Cc1c[nH]cn1)NC(=O)C(C)(C)NC(=O)[C@@H](N)Cc1c[nH]cn1)[C@@H](C)O)[C@@H](C)O)C(=O)N[C@@H](CCC(=O)O)C(=O)N[C@@H](CCC(=O)O)C(=O)N[C@@H](CCC(=O)O)C(=O)N[C@@H](C)C(=O)N[C@H](C(=O)N[C@@H](CCCNC(=N)N)C(=O)N[C@@H](CC(C)C)C(=O)N[C@@H](Cc1ccccc1)C(=O)N[C@H](C(=O)N[C@@H](CCC(=O)O)C(=O)N[C@@H](Cc1c[nH]c2ccccc12)C(=O)N[C@@H](CC(C)C)C(=O)N[C@@H](CCCCN)C(=O)N[C@@H](C)C(=O)NCC(=O)NCC(=O)N1CCC[C@H]1C(=O)N[C@@H](CO)C(=O)N[C@@H](CO)C(=O)NCC(=O)N[C@@H](C)C(=O)N1CCC[C@H]1C(=O)N1CCC[C@H]1C(=O)N1CCC[C@H]1C(=O)N[C@@H](CO)C(N)=O)[C@@H](C)CC)C(C)C)C(=O)O [compound 7] | 0.0058 nM | 0.0065 nM | 0.0256 nM | – |
| CCCCCCCCCCCCCCCCCC(=O)N[C@@H](CCC(=O)NCCCC[C@H](NC(=O)[C@H](CCC(N)=O)NC(=O)[C@H](CCCCN)NC(=O)[C@H](CO)NC(=O)[C@H](CC(C)C)NC(=O)[C@H](CC(=O)O)NC(=O)[C@H](CO)NC(=O)[C@@H](NC(=O)[C@H](Cc1ccccc1)NC(=O)[C@@H](NC(=O)CNC(=O)[C@H](Cc1c[nH]cn1)NC(=O)[C@@H](CO)NC(=O)[C@@H](N)Cc1c[nH]cn1)[C@@H](C)O)[C@@H](C)O)C(=O)N[C@@H](CCC(=O)O)C(=O)N[C@@H](CCC(=O)O)C(=O)N[C@@H](CCC(=O)O)C(=O)N[C@@H](C)C(=O)N[C@H](C(=O)N[C@@H](CCCNC(=N)N)C(=O)N[C@@H](CC(C)C)C(=O)N[C@@H](Cc1ccccc1)C(=O)N[C@H](C(=O)N[C@@H](CCC(=O)O)C(=O)N[C@@H](Cc1c[nH]c2ccccc12)C(=O)N[C@@H](CC(C)C)C(=O)N[C@@H](CCCCN)C(=O)N[C@@H](C)C(=O)NCC(=O)NCC(=O)N1CCC[C@H]1C(=O)N[C@@H](CO)C(=O)N[C@@H](CO)C(=O)NCC(=O)N[C@@H](C)C(=O)N1CCC[C@H]1C(=O)N1CCC[C@H]1C(=O)N1CCC[C@H]1C(=O)N[C@@H](CO)C(N)=O)[C@@H](C)CC)C(C)C)C(=O)O [compound 9] | – | – | – | solubility at 2 h ([1]; pH 4.5): > 5000 µg/mL; solubility at 2 h ([1]; pH 7.4): > 5000 µg/mL |
| CCCCCCCCCCCCCCCCCC(=O)N[C@@H](CCC(=O)NCCCC[C@H](NC(=O)[C@H](CCC(N)=O)NC(=O)[C@H](CCCCN)NC(=O)[C@H](CO)NC(=O)[C@H](CC(C)C)NC(=O)[C@H](CC(=O)O)NC(=O)[C@H](CO)NC(=O)[C@@H](NC(=O)[C@H](Cc1ccccc1)NC(=O)[C@@H](NC(=O)CNC(=O)[C@H](Cc1c[nH]cn1)NC(=O)[C@H](CO)NC(=O)[C@@H](N)Cc1c[nH]cn1)[C@@H](C)O)[C@@H](C)O)C(=O)N[C@@H](CCC(=O)O)C(=O)N[C@@H](CCC(=O)O)C(=O)N[C@@H](CCC(=O)O)C(=O)N[C@@H](C)C(=O)N[C@H](C(=O)N[C@@H](CCCNC(=N)N)C(=O)N[C@@H](CC(C)C)C(=O)N[C@@H](Cc1ccccc1)C(=O)N[C@H](C(=O)N[C@@H](CCC(=O)O)C(=O)N[C@@H](Cc1c[nH]c2ccccc12)C(=O)N[C@@H](CC(C)C)C(=O)N[C@@H](CCCCN)C(=O)N[C@@H](C)C(=O)NCC(=O)NCC(=O)N1CCC[C@H]1C(=O)N[C@@H](CO)C(=O)N[C@@H](CO)C(=O)NCC(=O)N[C@@H](C)C(=O)N1CCC[C@H]1C(=O)N1CCC[C@H]1C(=O)N1CCC[C@H]1C(=O)N[C@@H](CO)C(N)=O)[C@@H](C)CC)C(C)C)C(=O)O [compound 10] | – | – | – | solubility at 2 h ([1]; pH 4.5, target concentration 10 mg/ml, 2 h agitation, read-out: Solubility (pH 4.5)): > 5000 µg/mL; solubility at 2 h ([1]; pH 7.4, target concentration 10 mg/ml, 2 h agitation, read-out: Solubility (pH 7.4)): > 5000 µg/mL; Stability (pH 4.5), % remaining peptide ([2]; pH 4.5, 7 days at 40° C. in solution): 92.7%; Stability (pH 7.4), % remaining peptide ([2]; pH 7.4, 7 days at 40° C. in solution): 93.4% |
| CCCCCCCCCCCCCCCC(=O)N[C@@H](CCC(=O)N[C@@H](CCC(=O)NCCCC[C@H](NC(=O)[C@H](CCC(N)=O)NC(=O)[C@H](CCCCN)NC(=O)[C@H](CO)NC(=O)[C@H](CC(C)C)NC(=O)[C@H](CC(=O)O)NC(=O)[C@H](CO)NC(=O)[C@@H](NC(=O)[C@H](Cc1ccccc1)NC(=O)[C@@H](NC(=O)CNC(=O)[C@H](Cc1c[nH]cn1)NC(=O)[C@@H](CO)NC(=O)[C@@H](N)Cc1c[nH]cn1)[C@@H](C)O)[C@@H](C)O)C(=O)N[C@@H](CCC(=O)O)C(=O)N[C@@H](CCC(=O)O)C(=O)N[C@@H](CCC(=O)O)C(=O)N[C@@H](C)C(=O)N[C@H](C(=O)N[C@@H](CCCNC(=N)N)C(=O)N[C@@H](CC(C)C)C(=O)N[C@@H](Cc1ccccc1)C(=O)N[C@H](C(=O)N[C@@H](CCC(=O)O)C(=O)N[C@@H](Cc1c[nH]c2ccccc12)C(=O)N[C@@H](CC(C)C)C(=O)N[C@@H](CCCCN)C(=O)N[C@@H](C)C(=O)NCC(=O)NCC(=O)N1CCC[C@H]1C(=O)N[C@@H](CO)C(=O)N[C@@H](CO)C(=O)NCC(=O)N[C@@H](C)C(=O)N1CCC[C@H]1C(=O)N1CCC[C@H]1C(=O)N1CCC[C@H]1C(=O)N[C@@H](CO)C(N)=O)[C@@H](C)CC)C(C)C)C(=O)O)C(=O)O [compound 13] | 0.0225 nM | – | 0.079 nM | – |
| CCCCCCCCCCCCCCCC(=O)N[C@@H](CCC(=O)NCCCC[C@H](NC(=O)[C@H](CCC(N)=O)NC(=O)[C@H](CCCCN)NC(=O)[C@H](CO)NC(=O)[C@H](CC(C)C)NC(=O)[C@H](CC(=O)O)NC(=O)[C@H](CO)NC(=O)[C@@H](NC(=O)[C@H](Cc1ccccc1)NC(=O)[C@@H](NC(=O)CNC(=O)[C@H](Cc1c[nH]cn1)NC(=O)[C@@H](CO)NC(=O)[C@@H](N)Cc1c[nH]cn1)[C@@H](C)O)[C@@H](C)O)C(=O)N[C@@H](CCC(=O)O)C(=O)N[C@@H](CCC(=O)O)C(=O)N[C@@H](CCC(=O)O)C(=O)N[C@@H](C)C(=O)N[C@H](C(=O)N[C@@H](CCCNC(=N)N)C(=O)N[C@@H](CC(C)C)C(=O)N[C@@H](Cc1ccccc1)C(=O)N[C@H](C(=O)N[C@@H](CCC(=O)O)C(=O)N[C@@H](Cc1c[nH]c2ccccc12)C(=O)N[C@@H](CC(C)C)C(=O)N[C@@H](CCCCN)C(=O)N[C@@H](C)C(=O)NCC(=O)NCC(=O)N1CCC[C@H]1C(=O)N[C@@H](CO)C(=O)N[C@@H](CO)C(=O)NCC(=O)N[C@@H](C)C(=O)N1CCC[C@H]1C(=O)N1CCC[C@H]1C(=O)N1CCC[C@H]1C(=O)N[C@@H](CO)C(N)=O)[C@@H](C)CC)C(C)C)C(=O)O [compound 14] | 0.0584 nM | 0.0041 nM | 0.437 nM | – |
| CCCCCCCCCCCCCCCC(=O)N[C@@H](CCC(=O)N[C@@H](CCC(=O)NCCCC[C@H](NC(=O)[C@H](CCC(N)=O)NC(=O)[C@H](CCCCN)NC(=O)[C@H](CO)NC(=O)[C@H](CC(C)C)NC(=O)[C@H](CC(=O)O)NC(=O)[C@H](CO)NC(=O)[C@@H](NC(=O)[C@H](Cc1ccccc1)NC(=O)[C@@H](NC(=O)CNC(=O)[C@H](CCC(N)=O)NC(=O)C(C)(C)NC(=O)[C@@H](N)Cc1c[nH]cn1)[C@@H](C)O)[C@@H](C)O)C(=O)N[C@@H](CCC(=O)O)C(=O)N[C@@H](CCC(=O)O)C(=O)N[C@@H](CCC(=O)O)C(=O)N[C@@H](C)C(=O)N[C@H](C(=O)N[C@@H](CCCNC(=N)N)C(=O)N[C@@H](CC(C)C)C(=O)N[C@@H](Cc1ccccc1)C(=O)N[C@H](C(=O)N[C@@H](CCC(=O)O)C(=O)N[C@@H](Cc1c[nH]c2ccccc12)C(=O)N[C@@H](CC(C)C)C(=O)N[C@@H](CCCCN)C(=O)N[C@@H](C)C(=O)NCC(=O)NCC(=O)N1CCC[C@H]1C(=O)N[C@@H](CO)C(=O)N[C@@H](CO)C(=O)NCC(=O)N[C@@H](C)C(=O)N1CCC[C@H]1C(=O)N1CCC[C@H]1C(=O)N1CCC[C@H]1C(=O)N[C@@H](CO)C(N)=O)[C@@H](C)CC)C(C)C)C(=O)O)C(=O)O [compound 24] | – | 0.0045 nM | – | – |

— US9771406B2, “Peptidic dual GLP-1/glucagon receptor agonists derived from exendin-4” (priority 2014, dated 2017)
